In paper PMC7614683, “A small molecule PI3Kα activator for cardioprotection and neuroregeneration” (Nature, 2023):

Key:
PI3Kα G106V mutant = target: T1, PI3Kα G106V mutant (Homo sapiens, UniProt P42336, G106V); assay: ADP-Glo catalytic activity, oncogenic mutant G106V; type: biochemical
T1 construct: Full-length human p110α was expressed either in a complex with full-length human p85α (for HTS, biochemistry and HDX-MS); 6xHis tag followed by TEV protease site (N); host or cells: Sf9, baculovirus
Experimental: Expression and purification of wild-type p110α (Cambridge MRC Laboratory for Molecular Biology (LMB-MRC) plasmid number OP831) in a complex with full-length p85α (LMB-MRC plasmid OP809) was performed as described. The oncogenic mutants G106V (LMB-MRC plasmid JB35), N345K (LMB-MRC plasmid OP661) and E545K (LMB-MRC plasmid OP663) were also purified using this protocol. Briefly, 10 litres of Spodoptera frugiperda (Sf9) cell culture at a density of 1.0 x 10^6 cells/ml were co-infected with a p85α-encoding virus [LMB-MRC plasmid OP809]. and a virus encoding p110α with an N-terminal 6xHis tag followed by a tobacco etch virus (TEV) protease site [LMB-MRC plasmid OP831]. After a 48 h infection at 27°C, cells were harvested and washed with PBS. […]
For characterisation of the effects of 1938 on in vitro PI3K enzymology, all reactions were performed at room temperature with 384 white-polystyrene plates (Corning #3574). […] Data was expressed as velocity (nmol of ADP generated/nmol of enzyme/sec). […] Luminescence was read using a PHERAstar® plate reader with software version 5.41, and analyses were performed using GraphPad Prism 8/9.

MCF10A cells = assay: pAKT S473 western blot, MCF10A; type: cell-based, human
full length p110α/p85α = target: T2, full length p110α/p85α (Homo sapiens, UniProt P42336); assay: Surface plasmon resonance; type: binding; conditions: immobilized p110α/p85α; read-out: Kd for PI3Kα by surface plasmon resonance
T2 construct: Full-length human p110α was expressed either in a complex with full-length human p85α (for HTS, biochemistry and HDX-MS); 6xHis tag followed by TEV protease site (N); host or cells: Spodoptera frugiperda Sf9, baculovirus
Experimental: SPR was performed with a Biacore T200, using CM7-sensor chips (Cytiva). Both reference control and analyte channels were equilibrated in HBS-P (Cytiva) supplemented with 5% (v/v) DMSO at 20°C. Full length p110α/p85α was immobilised onto the chip surface via amide coupling using the supplied kit (Cytiva) to reach an RU value of approximately 25,000 RU. Serial dilutions (1:2) of 1938 starting from 500 μM were injected over the chip for 60 s at 30 μL/min, with a 60 sec dissociation time. The data were double-referenced to the response on a blank but similarly modified flow channel and a buffer-only injection was subtracted. Any differences in the DMSO concentrations between the sample and buffer were corrected using the in-built solvent correction protocol. After reference and buffer signal correction, sensogram data were fitted using Prism 9.4.1 (GraphPad Software Inc). The responses at equilibrium (Req) of the were then fitted to a 1:1 binding model with a linear non-specific phase to determine Kd: (1) Req=(CRmax/C+Kd)+DC+B where C is the analyte concentration and Rmax is the maximum response at saturation, D is a non-specific response and B is the background resonance. Data were replotted correcting for the linear non-specific response. The binding was performed in triplicate.

T1 sequence (P42336 whole entry G106V): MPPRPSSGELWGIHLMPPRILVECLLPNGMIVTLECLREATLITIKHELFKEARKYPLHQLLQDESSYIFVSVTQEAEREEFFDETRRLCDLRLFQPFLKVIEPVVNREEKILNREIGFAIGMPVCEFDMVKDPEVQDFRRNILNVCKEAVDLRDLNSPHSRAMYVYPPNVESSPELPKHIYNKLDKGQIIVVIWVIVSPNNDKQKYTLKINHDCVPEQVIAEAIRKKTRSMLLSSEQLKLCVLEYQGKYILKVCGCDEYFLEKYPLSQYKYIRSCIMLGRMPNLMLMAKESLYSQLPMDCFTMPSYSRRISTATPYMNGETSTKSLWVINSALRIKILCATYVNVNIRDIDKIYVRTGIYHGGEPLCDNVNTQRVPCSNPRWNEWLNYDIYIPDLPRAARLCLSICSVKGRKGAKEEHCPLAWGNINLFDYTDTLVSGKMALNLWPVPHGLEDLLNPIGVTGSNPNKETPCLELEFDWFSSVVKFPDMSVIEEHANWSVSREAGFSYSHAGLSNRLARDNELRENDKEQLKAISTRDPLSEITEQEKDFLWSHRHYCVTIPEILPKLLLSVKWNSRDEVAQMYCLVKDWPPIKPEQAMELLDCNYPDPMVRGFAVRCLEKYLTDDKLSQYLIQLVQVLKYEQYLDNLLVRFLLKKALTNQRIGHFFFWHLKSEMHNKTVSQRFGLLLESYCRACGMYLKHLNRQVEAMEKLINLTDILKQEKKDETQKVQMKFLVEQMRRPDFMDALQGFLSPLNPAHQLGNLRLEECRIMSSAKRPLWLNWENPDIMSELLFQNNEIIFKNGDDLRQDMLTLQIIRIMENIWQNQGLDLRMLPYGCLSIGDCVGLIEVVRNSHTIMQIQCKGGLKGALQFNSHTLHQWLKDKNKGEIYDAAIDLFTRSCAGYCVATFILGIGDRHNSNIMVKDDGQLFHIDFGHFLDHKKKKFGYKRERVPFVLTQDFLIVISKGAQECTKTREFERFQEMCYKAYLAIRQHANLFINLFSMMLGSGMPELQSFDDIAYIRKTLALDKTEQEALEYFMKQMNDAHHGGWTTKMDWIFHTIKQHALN
T1 sequence (P27986 whole entry partner): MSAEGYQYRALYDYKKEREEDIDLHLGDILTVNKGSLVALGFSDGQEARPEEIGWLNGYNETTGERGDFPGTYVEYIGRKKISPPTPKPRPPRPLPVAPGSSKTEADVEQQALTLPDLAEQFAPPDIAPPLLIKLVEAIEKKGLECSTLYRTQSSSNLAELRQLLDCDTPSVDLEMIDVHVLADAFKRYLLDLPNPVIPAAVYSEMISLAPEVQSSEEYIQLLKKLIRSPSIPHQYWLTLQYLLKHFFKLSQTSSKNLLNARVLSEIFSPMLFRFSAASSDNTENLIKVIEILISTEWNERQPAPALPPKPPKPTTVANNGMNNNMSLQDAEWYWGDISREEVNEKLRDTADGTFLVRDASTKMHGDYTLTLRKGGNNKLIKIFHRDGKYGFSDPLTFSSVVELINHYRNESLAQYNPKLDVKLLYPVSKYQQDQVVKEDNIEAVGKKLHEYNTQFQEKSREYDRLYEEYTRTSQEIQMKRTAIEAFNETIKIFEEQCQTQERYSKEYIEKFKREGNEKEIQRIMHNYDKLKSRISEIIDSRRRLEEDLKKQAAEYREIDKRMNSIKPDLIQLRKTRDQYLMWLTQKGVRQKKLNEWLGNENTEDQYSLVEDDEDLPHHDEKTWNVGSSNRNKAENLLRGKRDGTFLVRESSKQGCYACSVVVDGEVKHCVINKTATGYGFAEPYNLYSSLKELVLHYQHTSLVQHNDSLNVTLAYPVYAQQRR
T2 sequence (P42336 whole entry): as the sequence (P42336 whole entry G106V) above, with V106G counted along it
T2 sequence (P27986 whole entry partner): as the sequence (P27986 whole entry partner) above

## CCN1CCN(c2ccc(Nc3cc(Nc4cccc5c4N(C(C)=O)CC5)ccn3)cc2)CC1 [Compound 1938]
PI3Kα G106V mutant
  activation of G106V mutant: levels comparable with stimulation with pY
MCF10A cells
  pAKT^S473 increase: BYL719-sensitive increase in pAKT^S473
Full length p110α/p85α
  Kd: 36 ± 5 µM
